# Values quoted from earlier work, collected in US8283364B2, “Compounds which have activity at M1 receptor and their uses in medicine” (Glaxo Group Limited, priority 2005, dated 2012).
# Experiments:
# [1] = system: dopamine driven behaviours; conditions: amphetamine induced locomotion in rats, apomorphine induced climbing in mice, turning in 6-OH-DA lesioned rats, amphetamine-induced motor unrest in monkeys
# [2] = system: A10 and A9 dopamine cell firing; conditions: A10 versus A9
structure (smiles),measurement,setting,value
CCCCCCOc1nsnc1C1=CCCN(C)C1 [xanomeline],effect on dopamine driven behaviours,[1],reverses a number of dopamine driven behaviours
same,effect on dopamine cell firing,[2],"inhibit A10, but not A9, dopamine cell firing"
same,"effect on psychotic symptoms (suspiciousness, hallucinations, delusions)",psychotic symptoms; Alzheimer's patients,reduce psychotic symptoms
same,side effects,psychotic symptoms; ascribed to relatively non-selective nature of the compound,dose-limiting peripheral cholinergic side effects
